Reference: US9539233B2, “Gallium formulation for the treatment and prevention of infectious diseases” (Aridis Pharmaceuticals Inc., priority 2009, dated 2017)
Values after ≈ are worked out from the molar mass of the structure shown. Like-named read-outs stand apart in the source and are kept apart here.

Tests used:
[1] = system: P. aeruginosa; details: for MIC: iron-starved BM-2 broth
[2] = system: Pa; details: i.t. inoculation of a lethal dose of Pa followed by nasal instillation of a bolus of liquid; mouse; cited from earlier work
[3] = system: B. anthracis 7702 cells; assay type: cell-based; details: 1:1 gallium-to-citrate molar ratio, approximately 20 hours of growth
[4] = system: Pa; details: against Pa; cited from earlier work

Compound: C[C@H]1[C@H](NC(=O)/C(=N\OC(C)(C)C(=O)O)c2csc(N)n2)C(=O)N1S(=O)(=O)O [Aztreonam]
- susceptibility category (R/S/I) ([1]; Mucoid Strain 20JR): S
- susceptibility category (R/S/I) ([1]; Mucoid Strain 35LK): S
- susceptibility category (R/S/I) ([1]; Mucoid Strain 41JQ): R
- susceptibility category (R/S/I) ([1]; Mucoid Strain 47JS): I
- susceptibility category (R/S/I) ([1]; Mucoid Strain 62LL): R
- susceptibility category (R/S/I) ([1]; Mucoid Strain 96JC): R
- susceptibility category (R/S/I) ([1]; Mucoid Strain 97JE): R
- susceptibility category (R/S/I) ([1]; Non-mucoid Strain 9HN): R
- susceptibility category (R/S/I) ([1]; Non-mucoid Strain 30IX): S
- susceptibility category (R/S/I) ([1]; Non-mucoid Strain 30JS): S
- susceptibility category (R/S/I) ([1]; Non-mucoid Strain 38LL): R
- susceptibility category (R/S/I) ([1]; Non-mucoid Strain 39IV): R
- susceptibility category (R/S/I) ([1]; Non-mucoid Strain 46IV): R
- susceptibility category (R/S/I) ([1]; Non-mucoid Strain 55HY): I

Compound: O=[N+]([O-])[O-].O=[N+]([O-])[O-].O=[N+]([O-])[O-].[Ga+3] [Gallium, gallium nitrate]
- protection [2]: good protection
- MIC ([1]; Mucoid Strain 20JR, 24 hours): <1 µg/mL
- MIC ([1]; Mucoid Strain 35LK, 24 hours): <1 µg/mL
- MIC ([1]; Mucoid Strain 41JQ, 24 hours): <32 µg/mL
- MIC ([1]; Mucoid Strain 47JS, 24 hours): <1 µg/mL
- MIC ([1]; Mucoid Strain 62LL, 24 hours): <1 µg/mL
- MIC ([1]; Mucoid Strain 96JC, 24 hours): <1 µg/mL
- MIC ([1]; Mucoid Strain 97JE, 24 hours): <1 µg/mL
- MIC ([1]; Non-mucoid Strain 9HN, 24 hours): <2 µg/mL
- MIC ([1]; Non-mucoid Strain 30IX, 24 hours): <1 µg/mL
- MIC ([1]; Non-mucoid Strain 30JS, 24 hours): <1 µg/mL
- MIC ([1]; Non-mucoid Strain 38LL, 24 hours): <1 µg/mL
- MIC ([1]; Non-mucoid Strain 39IV, 24 hours): <1 µg/mL
- MIC ([1]; Non-mucoid Strain 46IV, 24 hours): <1 µg/mL
- MIC ([1]; Non-mucoid Strain 55HY, 24 hours): <1 µg/mL
- OD600 nm ([3]; Gallium concentration 6.8 μM, TSB, 37° C.): 0.000
- OD600 nm ([3]; Gallium concentration 23.3 μM): 0.000
- OD600 nm ([3]; Gallium concentration 27.1 μM): 0.001
- OD600 nm ([3]; Gallium concentration 88.9 μM): 0.003
- OD600 nm ([3]; Gallium concentration 614.8 μM): 0.000
- OD600 nm ([3]; Gallium concentration 1709.9 μM): 0.000
- bactericidal concentration (MBC) [4]: approximately 0.7 μg/mL
- minimum inhibitory concentration (MIC90) [4]: approximately 0.7 μg/mL

Compound: NC[C@H]1O[C@H](O[C@H]2[C@H](O)[C@@H](O[C@H]3O[C@H](CO)[C@@H](O)[C@H](N)[C@H]3O)[C@H](N)C[C@@H]2N)[C@H](N)C[C@@H]1O [Tobramycin]
- susceptibility category (R/S/I) ([1]; Mucoid Strain 20JR): S
- susceptibility category (R/S/I) ([1]; Mucoid Strain 35LK): I
- susceptibility category (R/S/I) ([1]; Mucoid Strain 41JQ): R
- susceptibility category (R/S/I) ([1]; Mucoid Strain 47JS): R
- susceptibility category (R/S/I) ([1]; Mucoid Strain 62LL): S
- susceptibility category (R/S/I) ([1]; Mucoid Strain 96JC): R
- susceptibility category (R/S/I) ([1]; Mucoid Strain 97JE): R
- susceptibility category (R/S/I) ([1]; Non-mucoid Strain 9HN): R
- susceptibility category (R/S/I) ([1]; Non-mucoid Strain 30IX): R
- susceptibility category (R/S/I) ([1]; Non-mucoid Strain 30JS): S
- susceptibility category (R/S/I) ([1]; Non-mucoid Strain 38LL): I
- susceptibility category (R/S/I) ([1]; Non-mucoid Strain 39IV): S
- susceptibility category (R/S/I) ([1]; Non-mucoid Strain 46IV): R
- susceptibility category (R/S/I) ([1]; Non-mucoid Strain 55HY): R
- MIC ([1]; Pseudomonas aeruginosa, 24 h, Non-mucoid Strain 9HN): 128 µg/mL (≈ 274 µM)
- MIC ([1]; Pseudomonas aeruginosa, 24 h, Non-mucoid Strain 55HY): 128 µg/mL (≈ 274 µM)
